What was measured:
[1] = target: T1, human PRS protein (Homo sapiens, UniProt P07814); assay: PRS inhibitory activity (ATP/[32P]pyrophosphate exchange enzyme reaction); format: biochemical; settings: 300 nM test compound; recombinant human PRS (EPRS 998-1512); read-out: inhibitory rate (%) of PRS
T1 construct: to construct His-Avi-hEPRS (998-1512) expression plasmid; His tag (N); Avi tag (N); TEV cleavage site (ENLYFQ/GS, encoded by forward primer hEPRS-TEV-NheF) (N); made in house; host or cells: E. coli BL21(DE3)
T1 sequence (P07814 998-1512): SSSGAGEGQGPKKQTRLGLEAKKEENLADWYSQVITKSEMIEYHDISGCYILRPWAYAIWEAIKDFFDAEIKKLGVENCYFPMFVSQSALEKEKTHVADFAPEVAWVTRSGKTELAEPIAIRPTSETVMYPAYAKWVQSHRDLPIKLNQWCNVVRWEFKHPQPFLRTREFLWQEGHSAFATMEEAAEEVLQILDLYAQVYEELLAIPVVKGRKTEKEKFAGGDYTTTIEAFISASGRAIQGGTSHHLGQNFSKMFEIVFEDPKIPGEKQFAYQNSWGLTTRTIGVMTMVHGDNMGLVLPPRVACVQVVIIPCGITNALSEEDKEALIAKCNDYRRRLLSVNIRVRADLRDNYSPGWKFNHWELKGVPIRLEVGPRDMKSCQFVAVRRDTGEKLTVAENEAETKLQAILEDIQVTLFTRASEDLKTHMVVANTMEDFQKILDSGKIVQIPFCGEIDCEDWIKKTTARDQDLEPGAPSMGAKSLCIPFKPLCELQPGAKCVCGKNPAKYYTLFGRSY
In short: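 His-Avi-tagged human EPRS catalytic domain (998-1512), E. coli-expressed, was preincubated 60 min with compound (enzyme added as 40 nM solution) in Tris pH 7.5, KCl, DTT, Tween 20 and MgCl2. The substrate solution contained 300 μM ATP, 160 μM L-proline, and 400 μM pyrophosphate with [32P]pyrophosphate; reaction ran 30 min at room temperature. Charcoal-captured label was counted, with enzyme-free wells taken as 100% inhibition.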

[2] = tested on: human ovarian cancer cell A2780; assay: proliferation inhibitory activity against A2780 cells (CellTiter-Glo); format: cell-based; settings: A2780, 72 h, 1 μM test compound, 3 days of culture, read-out: proliferation inhibitory rate (%) of A2780 cells
Procedure: The proliferation inhibitory activity of the compound of the present invention against human ovarian cancer cell A2780 was evaluated by the following method.
Human ovarian cancer cells A2780 were seeded in a 384 well culture plate at 1000 cells in 30 μL of medium per well by using RPMI-1640 medium (Wako Pure Chemical Industries, Ltd.) containing 10% fetal bovine serum and penicillin/streptomycin. The next day, 10 μL of RPMI-1640 medium containing the test compound was added to the cells. After 3 days of culture, 20 μL of CellTiter-Glo Luminescent Cell Viability Assay solution (Promega, Fitchburg, Wis., US) was added. The luminescence signal was measured using EnVision (PerkinElmer, Waltham, Mass., US) and the inhibitory rate (%) of the test compound was calculated with a well free of seeding of cell as 100% inhibition.

Row | Structure (SMILES) | inhibition at 0.3 µM [1] [%] | inhibition at 1 µM [2] [%]
1 | Cc1cc(N2CC[C@@](C#N)(C3CC3)C2=O)nc(NC(=O)Cc2cccc(-c3cnn(C)c3)c2)n1 [Example 132, N-(4-((3S)-3-cyano-3-cyclopropyl-2-oxopyrrolidin-1-yl)-6-methylpyrimidin-2-yl)-2-(3-(1-methyl-1H-pyrazol-4-yl)phenyl)acetamide] | 98 | 73
2 | CCn1cc(-c2cccc(CC(=O)Nc3cc(N4CC[C@@](C#N)(C5CC5)C4=O)ccn3)c2)cn1 [Example 37, N-(4-((3S)-3-cyano-3-cyclopropyl-2-oxopyrrolidin-1-yl)pyridin-2-yl)-2-(3-(1-ethyl-1H-pyrazol-4-yl)phenyl)acetamide] | 99 | 90
3 | N#C[C@@]1(C2CC2)CCN(c2ccnc(NC(=O)Cc3cccc(-c4cnn(C5CCOC5)c4)c3)c2)C1=O (stereo partly drawn) [Example 94, N-(4-((3S)-3-cyano-3-cyclopropyl-2-oxopyrrolidin-1-yl)pyridin-2-yl)-2-(3-(1-(tetrahydrofuran-3-yl)-1H-pyrazol-4-yl)phenyl)acetamide] | 100 | 74
4 | N#C[C@@]1(C2CC2)CCN(c2ccnc(NC(=O)Cc3cccc(-c4cnn(CC5CCOCC5)c4)c3)c2)C1=O [Example 84, N-(4-((3S)-3-cyano-3-cyclopropyl-2-oxopyrrolidin-1-yl)pyridin-2-yl)-2-(3-(1-(tetrahydro-2H-pyran-4-ylmethyl)-1H-pyrazol-4-yl)phenyl)acetamide] | 97 | 55
5 | COCCn1cc(-c2cccc(CC(=O)Nc3cc(N4CC[C@@](C#N)(C5CC5)C4=O)ccn3)c2)cn1 [Example 70, N-(4-((3S)-3-cyano-3-cyclopropyl-2-oxopyrrolidin-1-yl)pyridin-2-yl)-2-(3-(1-(2-methoxyethyl)-1H-pyrazol-4-yl)phenyl)acetamide] | 99 | 58
6 | N#C[C@@]1(C2CC2)CCN(c2ccnc(NC(=O)Cc3cccc(-c4cnn(CC(F)F)c4)c3)c2)C1=O [Example 38, N-(4-((3S)-3-cyano-3-cyclopropyl-2-oxopyrrolidin-1-yl)pyridin-2-yl)-2-(3-(1-(2,2-difluoroethyl)-1H-pyrazol-4-yl)phenyl)acetamide] | 100 | 88
7 | Cn1cc(-c2cccc(CC(=O)Nc3cc(N4CC[C@@](C#N)(C5CC5)C4=O)cc(C(F)F)n3)c2)cn1 [Example 65, N-(4-((3S)-3-cyano-3-cyclopropyl-2-oxopyrrolidin-1-yl)-6-(difluoromethyl)pyridin-2-yl)-2-(3-(1-methyl-1H-pyrazol-4-yl)phenyl)acetamide] | 95 | 75
8 | Cn1cc(-c2cccc(CC(=O)Nc3cc(N4CC[C@@](C#N)(C5CC5)C4=O)cc(F)n3)c2)cn1 [Example 63, N-(4-((3S)-3-cyano-3-cyclopropyl-2-oxopyrrolidin-1-yl)-6-fluoropyridin-2-yl)-2-(3-(1-methyl-1H-pyrazol-4-yl)phenyl)acetamide] | 99 | 88
9 | Cc1cc(N2CC[C@@](C#N)(C3CC3)C2=O)cc(NC(=O)Cc2cccc3ccccc23)n1 [Example 27, N-(4-((3S)-3-cyano-3-cyclopropyl-2-oxopyrrolidin-1-yl)-6-methylpyridin-2-yl)-2-(1-naphthyl)acetamide] | 97 | 74
10 | N#C[C@@]1(C2CC2)CCN(c2ccnc(NC(=O)Cc3cccc(-c4cnn(CC5CC5(F)F)c4)c3)c2)C1=O (stereo partly drawn) [Example 78, N-(4-((3S)-3-cyano-3-cyclopropyl-2-oxopyrrolidin-1-yl)pyridin-2-yl)-2-(3-(1-((2,2-difluorocyclopropyl)-methyl)-1H-pyrazol-4-yl)phenyl)acetamide] | 100 | 80
11 | N#C[C@@]1(C2CC2)CCN(c2ccnc(NC(=O)Cc3cccc(-c4cnn(CC5CCCCO5)c4)c3)c2)C1=O (stereo partly drawn) [Example 83, N-(4-((3S)-3-cyano-3-cyclopropyl-2-oxopyrrolidin-1-yl)pyridin-2-yl)-2-(3-(1-(tetrahydro-2H-pyran-2-ylmethyl)-1H-pyrazol-4-yl)phenyl)acetamide] | 99 | 58
12 | N#C[C@@]1(C2CC2)CCN(c2ccnc(NC(=O)Cc3cccc(-c4cnn(C5CCCC5)c4)c3)c2)C1=O [Example 66, N-(4-((3S)-3-cyano-3-cyclopropyl-2-oxopyrrolidin-1-yl)pyridin-2-yl)-2-(3-(1-cyclopentyl-1H-pyrazol-4-yl)phenyl)acetamide] | 99 | 80
13 | N#C[C@@]1(C2CC2)CCN(c2ccnc(NC(=O)Cc3cccc(-c4cnn(CC5CC5)c4)c3)c2)C1=O [Example 64, N-(4-((3S)-3-cyano-3-cyclopropyl-2-oxopyrrolidin-1-yl)pyridin-2-yl)-2-(3-(1-(cyclopropylmethyl)-1H-pyrazol-4-yl)phenyl)acetamide] | 99 | 79
14 | N#C[C@@]1(C2CC2)CCN(c2ccnc(NC(=O)Cc3cccc(-c4cnn(CC5CCC5)c4)c3)c2)C1=O [Example 72, N-(4-((3S)-3-cyano-3-cyclopropyl-2-oxopyrrolidin-1-yl)pyridin-2-yl)-2-(3-(1-(cyclobutylmethyl)-1H-pyrazol-4-yl)phenyl)acetamide] | 98 | 65
15 | Cn1cc(-c2cc(F)cc(CC(=O)Nc3cc(N4CC[C@@](C#N)(C5CC5)C4=O)ccn3)c2)cn1 [Example 35, N-(4-((3S)-3-cyano-3-cyclopropyl-2-oxopyrrolidin-1-yl)pyridin-2-yl)-2-(3-fluoro-5-(1-methyl-1H-pyrazol-4-yl)phenyl)acetamide] | 102 | 97
16 | Cc1cc(N2CC[C@@](C#N)(C3CC3)C2=O)cc(NC(=O)Cc2cc(F)cc(-c3cnn(C)c3)c2)n1 [Example 52, N-(4-((3S)-3-cyano-3-cyclopropyl-2-oxopyrrolidin-1-yl)-6-methylpyridin-2-yl)-2-(3-fluoro-5-(1-methyl-1H-pyrazol-4-yl)phenyl)acetamide] | 99 | 97
17 | Cn1cc(-c2ccc(F)c(CC(=O)Nc3cc(N4CC[C@@](C#N)(C5CC5)C4=O)ccn3)c2)cn1 [Example 53, N-(4-((3S)-3-cyano-3-cyclopropyl-2-oxopyrrolidin-1-yl)pyridin-2-yl)-2-(2-fluoro-5-(1-methyl-1H-pyrazol-4-yl)phenyl)acetamide] | 100 | 82
18 | Cc1cc(N2CC[C@@](C#N)(C3CC3)C2=O)cc(NC(=O)Cc2cc(F)cc(-c3ccc(=O)n(C)c3)c2)n1 [Example 60, N-(4-((3S)-3-cyano-3-cyclopropyl-2-oxopyrrolidin-1-yl)-6-methylpyridin-2-yl)-2-(3-fluoro-5-(1-methyl-6-oxo-1,6-dihydropyridin-3-yl)phenyl)acetamide] | 99 | 97
19 | CC(C)n1cc(-c2cccc(CC(=O)Nc3cc(N4CC[C@@](C#N)(C5CC5)C4=O)ccn3)c2)cn1 [Example 93, N-(4-((3S)-3-cyano-3-cyclopropyl-2-oxopyrrolidin-1-yl)pyridin-2-yl)-2-(3-(1-isopropyl-1H-pyrazol-4-yl)phenyl)acetamide] | 100 | 76
20 | N#CCCCn1cc(-c2cccc(CC(=O)Nc3cc(N4CC[C@@](C#N)(C5CC5)C4=O)ccn3)c2)cn1 [Example 71, N-(4-((3S)-3-cyano-3-cyclopropyl-2-oxopyrrolidin-1-yl)pyridin-2-yl)-2-(3-(1-(3-cyanopropyl)-1H-pyrazol-4-yl)phenyl)acetamide] | 99 | 69
21 | Cc1ncc(-c2cccc(CC(=O)Nc3cc(N4CC[C@@](C#N)(C5CC5)C4=O)ccn3)c2)s1 [Example 45, N-(4-((3S)-3-cyano-3-cyclopropyl-2-oxopyrrolidin-1-yl)pyridin-2-yl)-2-(3-(2-methyl-1,3-thiazol-5-yl)phenyl)acetamide] | 97 | 76

From US10800754B2, “Heterocyclic amide compound” (TAKEDA PHARMACEUTICAL COMPANY LIMITED, priority 2016, dated 2020)
